The values below come from patent publication US20240391882A1 (Mirati Therapeutics, Inc., priority 2023, published 2024).

What is called IC50 is the concentration that gives 50% inhibition.

Type in all cases: cell-based
In assay [1] the test system is T47D (PI3Kα H1047R mutant) cells. Put plainly: Cell viability (CellTiter-Glo 2.0) in T47D cells. The following applies: Homo sapiens, T47D, 72 h, approximately 72 hours. A digest of the protocol:
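SKBR3 or T47D cells, 1000 per well, were seeded overnight and then exposed ~72 h at 37° C to 10 concentrations of compound, 1:4 dilutions from 10 μm. Viability read by CellTiter-Glo luminescence as percent of vehicle; IC50 from four-parameter variable-slope fit.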

The test system of assay [2] is SKBR3 (PI3Kα wild type) cells. Briefly: Cell viability (CellTiter-Glo 2.0) in SKBR3 cells. The following applies: Homo sapiens, SK-BR-3; SKBR3 (PI3Kα wild type) cells, approximately 72 hours, CellTiter-Glo 2.0; read-out: SKBR3 (WT) Viability IC50. The protocol: This Example illustrates that representative compounds of the invention decrease the viability of cells.
The ability of a compound of Formula (I) to decrease the viability of cells was measured using CellTiter-Glo 2.0 (CTG) Luminescent Cell Viability Assay (#G9241) obtained from Promega (Madison, WI).
To prepare assay plates for viability assays, cells were trypsinized, resuspended in fresh media, and viable cells were counted utilizing trypan blue exclusion. T47D, SKBR3, or MKN1 cells were seeded at 1000 cells in 30 μl per well in a solid white flat bottom 384 cell culture plate (Perkin Elmer #6007680) and incubated at 37° C. overnight.
Assay day 1, cells were dosed using an Echo Liquid Handler (Beckman Coulter) with compounds at a 10 μm starting concentration and serially diluted (1:4) for a total of 10 concentrations. Cells were incubated for approximately 72 hours with the compounds (solubilized in DMSO) at 37° C. After 72 hours of treatment, cell plates were equilibrated to room temperature before adding 15 μl of CTG to each well, plates were then covered in aluminum foil to protect from light, incubated at room temperature for 30 minutes on a microtiter plate shaker, and luminescence readings were collected using a CLARIOstar microplate reader (BMG Labtech, Germany). Percent of vehicle control values were plotted as log(inhibitor) vs. response—Variable slope (four parameters) for curve fitting and IC50 values were determined using XLfit.

Assay [3] deals with pAKT in T47D (PI3Kα H1047R mutant) cells. Briefly: Inhibition of pAKT (alphaLISA Surefire Ultra AKT 1/2/3 pS473) in T47D cells. The following applies: Homo sapiens; T47D (PI3Kα H1047R mutant) cells, 24 hr compound incubation, alphaLISA pS473; read-out: T47D (H1047R) pAKT 24 hr (IC50). The protocol: The ability of a compound of Formula (I) to inhibit the formation of pAKT was measured using alphaLISA Surefire Ultra AKT 1/2/3 (pS473) Assay Kit (#ALSU-PAKT-B50K) was obtained from Perkin Elmer (Waltham, MA).
To prepare assay plates for pAKT alphaLISA assays, cells were trypsinized, resuspended in fresh media, and viable cells were counted utilizing trypan blue exclusion. Prior to seeding, cells were washed with PBS and resuspended in HBSS (Gibco, #14025092). T47D (12,000/w), SKBR3 (12,000/w), or MKN1 (24,000/w) cells were seeded at 12 μl per well in a solid white flat bottom 384 cell culture plate (Perkin Elmer #6007680).
Immediately after seeding, cells were dosed using an Echo Liquid Handler (Beckman Coulter) with compounds at a 10.4 μm starting concentration and serially diluted (1:4) for a total of 10 concentrations. 14 vehicle (DMSO) and 14 positive control (Alpelisib @3.125 μm) wells were included on each assay plate. Cells were incubated with the compounds (solubilized in DMSO) for approximately 24 hours at 37° C. After 24 hours of treatment, cells were lysed with 3 μl of the 5× lysis buffer (provided and incubated at room temperature for 15 min on a microtiter plate shaker). Once cells were sufficiently lysed, 7.5 μl of the acceptor bead mix (made using the manufacturers recommended dilutions) was added to each well and left on the microtiter plate shaker for 1 min prior to incubating plates at room temperature for 1 hour, in the absence of light. After 1 hour of incubation with the acceptor bead mix, 7.5 μl of the donor bead mix (made using the manufacturers recommended dilutions) was added to each well and left on the microtiter plate shaker for 1 min prior to incubating plates at room temperature overnight in the absence of light. Plates were then imaged the following day using a CLARIOstar microplate reader (BMG Labtech, Germany).
Percent of control values were calculated by subtracting the average signal from the positive control (alpelisib) treated wells from all treated wells (including DMSO control wells) and then divided by the average signal from the vehicle DMSO treated control wells. Percent of vehicle control values were plotted as log(inhibitor) vs. response—Variable slope (four parameters) for curve fitting and IC50 values were determined using XLfit.
Background: Alpha assays give light when donor and acceptor beads are brought close together.

Turning to `Cc1cc([C@@H](C)Nc2ccc(Cl)nc2C(=O)O)c2nc(NCC3(C(F)(F)F)CC3)c(C#N)nc2c1` [Example 15, (R)-6-chloro-3-((1-(2-cyano-7-methyl-3-(((1-(trifluoromethyl)cyclopropyl)methyl)amino)quinoxalin-5-yl)ethyl)amino)picolinic acid], the figures for the concentration for half-maximal inhibition (IC50) in assay [1] and in assay [2] were 0.12 µM and more than 10 µM, respectively.

Turning to `Cc1cc([C@@H](C)Nc2ccc(Cl)nc2C(=O)O)c2nc(N3CC4(COC4)C3)c(C#N)nc2c1` [Example 60, (R)-6-chloro-3-((1-(2-cyano-7-methyl-3-(2-oxa-6-azaspiro[3.3]heptan-6-yl)quinoxalin-5-yl)ethyl)amino)picolinic acid], the 50% inhibitory concentration (IC50) is 0.0211 µM in assay [1] and more than 10 µM in assay [2].

As to `Cc1cc([C@@H](C)Nc2ccccc2C(=O)O)c2nc(NC3CC(F)(F)C3)c(C#N)nc2c1` [Example 76, (R)-2-((1-(2-cyano-3-((3,3-difluorocyclobutyl)amino)-7-methylquinoxalin-5-yl)ethyl)amino)benzoic acid], the 50% inhibitory concentration (IC50) in assay [1] is 0.324 µM; in assay [2] it was more than 10 µM.

As to `CO[C@H]1CCN(c2nc3c([C@@H](C)Nc4ccc(Cl)nc4C(=O)O)cc(C)cc3nc2C#N)C1` (single isomer, unassigned) [Example 110B], the values for the IC50 in assay [1] and in assay [2] were 0.0963 µM and more than 10 µM, respectively.

For `CO[C@@H]1CCN(c2nc3c([C@@H](C)Nc4ccc(Cl)nc4C(=O)O)cc(C)cc3nc2C#N)C1` (single isomer, unassigned) [Example 110A], the IC50 is 0.298 µM in assay [1] and more than 10 µM in assay [2].

For `Cc1cc([C@@H](C)Nc2ccc(Cl)nc2C#N)c2nc(N3CCOCC3)c(C#N)nc2c1` [Example 855, (R)-5-(1-((6-chloro-2-cyanopyridin-3-yl)amino)ethyl)-7-methyl-3-morpholinoquinoxaline-2-carbonitrile], the IC50 came to 1.08 µM in assay [1] and 6.9 µM in assay [2].

For `CO[C@H]1CCN(c2nc3c([C@@H](C)Nc4ccccc4C(=O)O)cc(C)cc3nc2C#N)C1` (single isomer, unassigned) [Example 72A], the IC50 in assay [1] was 0.298 µM; in assay [2], more than 10 µM.

For `Cc1cc([C@@H](C)Nc2ccccc2C(=O)O)c2nc(N3CCC(C)(C(F)(F)F)CC3)c(C#N)nc2c1` [Example 65, (R)-2-((1-(2-cyano-7-methyl-3-(4-methyl-4-(trifluoromethyl)piperidin-1-yl)quinoxalin-5-yl)ethyl)amino)benzoic acid], the results for the IC50 in assay [1] and in assay [2] were 0.456 µM and more than 10 µM, respectively.

Regarding `Cc1cc([C@@H](C)Nc2ccc(Cl)nc2C(=O)O)c2nc(NC3CC(F)(F)C3)c(C#N)nc2c1` [Example 77, (R)-6-chloro-3-((1-(2-cyano-3-((3,3-difluorocyclobutyl)amino)-7-methylquinoxalin-5-yl)ethyl)amino)picolinic acid], the IC50 in assay [1] turned out to be 0.077 µM; in assay [2], 8.61 µM.

Consider `Cc1cc([C@@H](C)Nc2ccc(Cl)nc2C(=O)O)c2nc(N3CC4CC3C(F)(F)C4)c(C#N)nc2c1` (single isomer, unassigned) [Example 11], for which the IC50 in assay [1] is 0.064 µM; in assay [2], more than 10 µM.

With `Cc1cc([C@@H](C)Nc2ccc(Cl)nc2C(=O)O)c2nc(N3CCCC(F)(F)C3)c(C#N)nc2c1` [Example 12, (R)-6-chloro-3-((1-(2-cyano-3-(3,3-difluoropiperidin-1-yl)-7-methylquinoxalin-5-yl)ethyl)amino)picolinic acid], the IC50 in assay [1] was 0.16 µM; in assay [2], more than 10 µM.

Turning to `Cc1cc([C@@H](C)Nc2ccccc2C(=O)O)c2nc(N3CCC(F)(F)[C@H](C)C3)c(C#N)nc2c1` [Example 79B, 2-(((R)-1-(2-cyano-3-((R)-4,4-difluoro-3-methylpiperidin-1-yl)-7-methylquinoxalin-5-yl)ethyl)amino)benzoic acid], the results for the IC50 in assay [1] and in assay [2] were 0.176 µM and more than 10 µM, respectively.

As to `Cc1cc([C@@H](C)Nc2ccc(Cl)nc2C(=O)O)c2nc(N3CCC(F)(F)[C@H](C)C3)c(C#N)nc2c1` [Example 78A, 6-chloro-3-(((R)-1-(2-cyano-3-((R)-4,4-difluoro-3-methylpiperidin-1-yl)-7-methylquinoxalin-5-yl)ethyl)amino)picolinic acid], the IC50 in assay [1] amounted to 0.126 µM; in assay [2], 7.06 µM.

Regarding `Cc1cc([C@@H](C)Nc2ccc(Cl)nc2C(=O)O)c2nc(N3CC4CC3C(F)(F)C4)c(C#N)nc2c1` (single isomer, unassigned) [Example 10], the IC50 in assay [1] was 0.0716 µM; in assay [2], more than 10 µM.

With `Cc1cc([C@@H](C)Nc2ccccc2C(=O)O)c2nc(N3CCC(F)(F)C3)c(C#N)nc2c1` [Example 71, (R)-2-((1-(2-cyano-3-(3,3-difluoropyrrolidin-1-yl)-7-methylquinoxalin-5-yl)ethyl)amino)benzoic acid], the concentration for half-maximal inhibition (IC50) in assay [1] was 0.276 µM; in assay [2] it was more than 10 µM.

`Cc1cc([C@@H](C)Nc2ccc(Cl)nc2C(=O)O)c2nc(N3CCC(S(C)(=O)=O)CC3)c(C#N)nc2c1` [Example 106, (R)-6-chloro-3-((1-(2-cyano-7-methyl-3-(4-(methylsulfonyl)piperidin-1-yl)quinoxalin-5-yl)ethyl)amino)picolinic acid]: the 50% inhibitory concentration (IC50) was 0.0981 µM in assay [1] and more than 10 µM in assay [2].

As to `CNC(=O)c1ccccc1N[C@H](C)c1cc(C)cc2nc(C#N)c(N3CCOCC3)nc12` [Example 856, (R)-2-((1-(2-cyano-7-methyl-3-morpholinoquinoxalin-5-yl)ethyl)amino)-N-methylbenzamide], the IC50 in assay [1] was found to be 3.45 µM; in assay [2], 3.56 µM.

Turning to `Cc1cc([C@@H](C)Nc2ccccc2C(=O)O)c2nc(N3CCC(F)(F)[C@@H](C)C3)c(C#N)nc2c1` [Example 79A, 2-(((R)-1-(2-cyano-3-((S)-4,4-difluoro-3-methylpiperidin-1-yl)-7-methylquinoxalin-5-yl)ethyl)amino)benzoic acid], the values for the IC50 in assay [1] and in assay [2] were 0.252 µM and more than 10 µM, respectively.

As for `Cc1cc([C@@H](C)Nc2ccc(Cl)nc2C(=O)O)c2nc(N3CC[S+]([O-])CC3)c(C#N)nc2c1` [Example 107, (R)-6-chloro-3-((1-(2-cyano-7-methyl-3-(1-oxidothiomorpholino)quinoxalin-5-yl)ethyl)amino)picolinic acid], the IC50 is 0.216 µM in assay [1] and more than 10 µM in assay [2].

Turning to `Cc1cc([C@@H](C)Nc2ccc(Cl)nc2C(=O)O)c2nc(N3CCc4cc(F)ccc4C3)c(C#N)nc2c1` [Example 87, (R)-6-chloro-3-((1-(2-cyano-3-(6-fluoro-3,4-dihydroisoquinolin-2(1H)-yl)-7-methylquinoxalin-5-yl)ethyl)amino)picolinic acid], the IC50 in assay [1] worked out at 0.0887 µM; in assay [2], 9.25 µM.

On to `Cc1cc([C@@H](C)Nc2ccccc2C(=O)O)c2nc(N3CCC4(CC3)C(F)(F)C4(F)F)c(C#N)nc2c1` [Example 129, (R)-2-((1-(2-cyano-7-methyl-3-(1,1,2,2-tetrafluoro-6-azaspiro[2.5]octan-6-yl)quinoxalin-5-yl)ethyl)amino)benzoic acid], for which the IC50 in assay [3] worked out at 0.0188 µM; in assay [1], 0.33 µM.
